Source: patent publication US10696971B2, “MrgprX2/MrgprB2 expressing cell based assay to detect pseudo-allergic drug reactions and to identify blockers to prevent the adverse reactions” (The Johns Hopkins University, priority 2014, dated 2020)

How the values were obtained:
WT and MrgprB2^MUT mice = test: Systemic anaphylaxis assay (body core temperature); assay type: in vivo, mouse; conditions: ciprofloxacin i.v. 1.5 mg in 125 μl saline after propranolol, much smaller drop in MrgprB2^MUT
Experimental: To minimize stress, animals were transported to the procedure area the day before injections. Adult male and female mice up to 8 months of age (25 to 35 grams) were given an intraperitoneal injection of 80 μg propranolol in saline (2 mg/ml) immediately after removal from their cages, and then placed back in their cages for 30 minutes before intravenous injections. The intravenous injections were performed on one mouse at a time. For each injection, a mouse was placed in a transport box and brought to a room with no other mice, to minimize stress from vocalizations during injection. The mouse was then placed in a restrainer, and the injection was performed within 4 minutes of restraint because it was observed that longer restraint times affected body core temperature independent from the injection. […] The injection was determined to be successful only when all of the criteria were met: blood appeared in the syringe after needle insertion, all tail veins were visible after injection, and the mouse bled slightly from the injection site after needle withdrawal. The injection site was swabbed until blood stopped flowing, the mouse was placed in a separate cage from its housing cage, one mouse per cage, and returned to the room it was brought from. […] Body core temperature was measured with a rectal thermometer.

LAD2 human mast cells = test: LAD2 degranulation assay (β-hexosaminidase release), with MrgprX2 siRNA knockdown; assay type: cell-based; conditions: compound 48/80 0.1, mastoparan 5, icatibant 10, atracurium 25, ciprofloxacin 75 μg/ml
Experimental: LAD2 cells were sensitized for 20 hours with 0.5 μg/ml biotin-conjugated human IgE (Abbiotec). Cells were washed, resuspended in Hepes buffer (10 mM HEPES, 137 mM NaCl, 2.7 mM KCl, 0.38 mM Na2HPO4.7H2O, 5.6 mM glucose, 1.8 mM CaCl2.H2O, 1.3 mM MgSO4.7H2O, 0.4% BSA, pH 7.4) at 0.025×10^6 per well, and then stimulated with 0.1 μg/ml streptavidin (Life Technologies) or other agonists at the indicated concentrations for 30 minutes at 37° C./5% CO2. The β-hexosaminidase released into the supernatants and in cell lysates was quantified by hydrolysis of p-nitrophenyl N-acetyl-β-D-glucosamide (Sigma-Aldrich) in 0.1 M sodium citrate buffer (pH 4.5) for 90 minutes at 37° C. The percentage of β-hexosaminidase release was calculated as a percent of total content.
LAD2 cells were washed with medium, suspended at 0.5×10^6 cells per well, and transfected with 100 nm MrgprX2 siRNA and control siRNA in antibiotic-free StemPro medium using Lipofectamine 3000 (Life Technologies) according to the manufacturer's instruction at 37° C./5% CO2. At 48 hours, knockdown was confirmed by reverse-transcriptase PCR, and the cells were used for degranulation assays.

peritoneal mast cells = test: Mouse peritoneal mast cell histamine release assay; assay type: cell-based; conditions: WT vs MrgprB2^MUT peritoneal mast cells
Experimental: Mast cells were purified as with the calcium imaging assay and allowed to recover for 2 hours in DMEM with 10% FBS and 25 ng/ml mouse stem cell factor in a 37° C. incubator with 5% CO2. Cells were then spun down, resuspended in CIB, counted, and plated at 300 cells/well in 75 μl CIB in 96-well plates coated with 20 μg/ml fibronectin (Sigma). They were allowed to adhere to the substrate for 45 minutes at 37° C. in atmospheric conditions (i.e. CO2 levels were not adjusted) before assay. […] After 5 minutes, 40 μl of supernatant was aspirated, diluted with 40 μl CIB and frozen at −80° C. until histamine levels were determined. Anti-IgE treatment was similar, except that cells were incubated for 30 minutes at 37° C. after anti-IgE was added before aspiration of supernatant. Histamine content was determined by using an HTRF histamine assay kit (Cisbio Assays) according to the manufacturer's instructions.

O=C(O)c1cn(C2CC2)c2cc(N3CCNCC3)c(F)cc2c1=O [ciprofloxacin]
change in body temperature (WT and MrgprB2^MUT mice): induced a rapid drop in body temperature
β-hexosaminidase release in MrgprX2 siRNA vs control siRNA cells (LAD2 human mast cells): significantly reduced
histamine release from WT peritoneal mast cells (MrgprB2^MUT released substantially less) (peritoneal mast cells): induced histamine release
